Laboratory results: PubChem BioAssay (NCI)
“And” between values parts separate entries of the source, which are not always exact repeats. Identical values can stand only once.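 The compound was tested at five concentrations on cells cultured in 96-well plates, with a 48-hour exposure period. Abbreviation: GI50, concentration required for 50% inhibition of growth. TGI: concentration producing complete growth inhibition.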

How the values were obtained:
Test in all cases: NCI anticancer screen, dose series, 48 h
NCI-H522 lung = test system: NCI-H522 lung
DLD-1 colon = test system: DLD-1 colon
LOX IMVI melanoma = test system: LOX IMVI melanoma
KM12 colon = test system: KM12 colon
HCT-15 colon = test system: HCT-15 colon
SK-OV-3 ovarian = test system: SK-OV-3 ovarian
SR leukemia = test system: SR leukemia
HOP-92 NSCLC = test system: HOP-92 NSCLC
BT-549 breast = test system: BT-549 breast
DMS 273 small cell lung = test system: DMS 273 small cell lung

| Structure (SMILES) | TGI (NCI-H522 lung) | TGI (DLD-1 colon) [µM] | TGI (LOX IMVI melanoma) [µM] | TGI (KM12 colon) [µM] | TGI (HCT-15 colon) [µM] | TGI (SK-OV-3 ovarian) | GI50 (NCI-H522 lung) | GI50 (SR leukemia) [µM] | TGI (SR leukemia) [µM] | GI50 (HOP-92 NSCLC) [µM] | TGI (HOP-92 NSCLC) [µM] | GI50 (LOX IMVI melanoma) | GI50 (KM12 colon) | GI50 (HCT-15 colon) | GI50 (BT-549 breast) | TGI (BT-549 breast) | GI50 (SK-OV-3 ovarian) | TGI (DMS 273 small cell lung) [µM] |
| --- | --- | --- | --- | --- | --- | --- | --- | --- | --- | --- | --- | --- | --- | --- | --- | --- | --- | --- |
| O=C(Nc1ccc(Cl)cc1Cl)C1C(=O)C(=O)N(c2ccc(Cl)cc2Cl)C1=O (stereo not given) | > 100 µM | > 100 | > 100 | > 100 | > 100 | > 100 µM |  |  |  |  |  |  |  |  |  |  |  |  |
| CS(=O)(=O)CCNCc1ccc(-c2ccc3ncnc(Nc4ccc(OCc5ccccc5)c(Br)c4)c3c2)o1 | 10.6 µM |  | 8.69 | > 25 | 14.7 | > 25 µM | 3.86 µM | 8.49 | > 23.3 | 3.49 | 12.5 | 4.36 µM | 9.06 µM | 4.51 µM | 8.89 µM | > 25 µM | 0.115 µM |  |
| COc1ccc(-c2cc(-c3ccc(Cl)cc3)nc(SCCCC(=O)NO)n2)cc1 | 3.26 µM |  | 1.32 | 4.12 | 1.7 | 5.68 µM | 0.704 µM | 0.358 |  | 1.8 | 5.07 | 0.153 µM | 1.44 µM | 0.413 µM | 2.46 µM | 28.6 µM | 1.67 µM |  |
| C=C1C(=O)O[C@H]2[C@H]1CC/C(COC(=O)C(=O)c1cn(C)c3ccc(Cl)cc13)=C\CC[C@@]1(C)O[C@@H]21 | 2.68 µM |  | 0.387 | 7.46 | 0.5 |  | 1.24 µM | 0.3 | 50 | 1.72 | 3.62 | 0.191 µM | 2.48 µM | 0.209 µM | 0.234 µM | 0.618 µM | 3.28 µM |  |
| Cc1ccc(Cc2cnc(NC(=O)/C=C/c3cccc(C)c3)s2)cc1 | > 100 µM |  | 7.4 | > 48.4 | > 96 | > 59.7 µM | 0.151 µM | 0.0449 | 2.23 | 0.0793 | > 57 | 0.124 µM | 0.14 µM | 0.049 µM | 0.256 µM | > 27.4 µM | 0.85 µM |  |
| Cc1nc2sc(C(=O)Nc3cccc4ccccc34)c(N)c2cc1C(O)c1ccccc1 (stereo not given) | 11.4 µM |  | 6.67 | 1.73 | 11.1 | 67.4 µM | 0.048 µM | 0.04 | > 43 | 2.11 | 18.8 | 0.0568 µM | 0.044 µM | 0.0388 µM | 0.144 µM | 3.63 µM | 0.0702 µM |  |
| C[C@]12CC[C@@H]3c4cc(-c5ccc(F)cc5)c(O)cc4CC[C@H]3[C@@H]1CC[C@@H]2O | 16.7 µM |  | 22.1 | 20.9 | 18.8 | 28.2 µM | 3.79 µM | 4.75 | 24.5 | 10.6 | 23.6 | 9.88 µM | 6.49 µM | 5.61 µM | 6.51 µM | 23.3 µM | 13.3 µM |  |
| C[C@@H](O)[C@H](NC(=O)N[C@@H](CC(N)=O)c1nc([C@@H](N)CO)no1)C(=O)O | > 100 µM |  | > 100 | > 100 | > 100 | > 100 µM | > 100 µM | > 100 | > 100 | > 100 | > 100 | > 100 µM | > 100 µM | > 100 µM | > 100 µM | > 100 µM | > 100 µM |  |
| COC(=O)c1cc2c3ccccc3n3c(=O)c4cc5ccccc5nc4c(n1)c23 | > 100 µM |  | > 100 | > 100 | > 100 | > 100 µM | > 100 µM | > 100 | > 100 | > 100 | > 100 | > 100 µM | > 100 µM | > 100 µM | > 100 µM | > 100 µM | > 100 µM |  |
| C#CC1(OC(C)=O)CCC2C3CC=C4C=C(OC(C)=O)CCC4(C)C3CCC21C (stereo not given) | 34.9 µM |  | 53.2 | 40.2 | 62.5 | > 100 µM |  |  | 35 |  | 32.9 |  |  |  |  | 83.1 µM |  |  |
| COc1cc(N2CCC(N3CCN(C)CC3)CC2)ccc1Nc1ncnc(Nc2ccccc2S(=O)(=O)C(C)C)n1 | 14 µM |  | 7.62 | 27.6 | > 46.5 | 30.5 µM | 4.65 µM | 0.104 | 18.7 | 0.467 | 2.03 | 2.28 µM | 6.76 µM | 3.5 µM | 18.4 µM | 44.7 µM | 5.18 µM |  |
| O=C(O)NC(c1ccccc1)C(NC(=O)c1ccccc1)c1ccccc1 (stereo not given) |  | > 100 | > 100 | > 100 | > 100 |  |  |  | > 100 |  | > 100 |  |  |  |  |  |  |  |
| CC1=C(C(=O)Nc2cc(=O)n(C)c(=O)n2C)C(c2cccc([N+](=O)[O-])c2)C(C(=O)Nc2cc(=O)n(C)c(=O)n2C)=C(C)N1 | > 100 µM | > 100 | > 100 | > 100 |  | > 100 µM |  |  |  |  | > 100 |  |  |  |  |  |  |  |
| C[C@]12CCC(=O)C(O)=C1CC[C@@H]1C2CC[C@]2(C)NC(=O)CCC12 (stereo not given in full) | > 100 µM |  | > 100 | > 100 | > 100 | > 100 µM |  |  |  |  | > 100 |  |  |  |  |  |  | > 100 |
| CCCN(CCC)c1ccc(/C=C/c2ccc3cc(OCC)ccc3n2)cc1 | > 100 µM |  | > 100 | > 100 | > 100 | > 100 µM | 35.1 µM | 13.8 | > 100 | > 100 | > 100 | > 100 µM | > 100 µM | 9.7 µM | > 100 µM | > 100 µM | > 100 µM |  |
| CNC/C(Cl)=N/S(=O)(=O)c1ccc(C)cc1 | 24.9 µM |  | 27.3 | 27.7 | > 100 | 56.6 µM |  |  | 34.9 |  | 51.1 |  |  |  |  | 51.7 µM |  |  |
| C=C(CN1CCN(c2cccc(C(F)(F)F)n2)CC1)c1ccc(C(=O)Nc2ccccc2N)cc1 | > 100 µM and 38.1 µM |  | > 100 | > 100 | > 100 | 42.4 µM and 21.2 µM | 1.11 µM and 0.896 µM | > 39.1 | > 100 | 2 | 43.9 | 1.5 µM and 0.496 µM | 0.668 µM and 0.455 µM | 0.918 µM and 0.404 µM | 0.918 µM and 0.34 µM | 88.4 µM and > 100 µM | 2.55 µM and 0.634 µM |  |
